{
  "source": "patent US20090087443A1",
  "about": "“Pharmacological Adjunctive Treatment Associated with Glaucoma Filtration Surgery” (priority 2007, published 2009)",
  "key": {"[1]": {"system": "New Zealand White rabbits", "test": "Mortality/morbidity in the rabbit topical IOP study", "assay_type": "in vivo", "details": "for Mortality (number of animals found dead or euthanized prior to study completion/number of animals in group): right eye topical 4 × daily through Day 31, to Day 33"}, "[2]": {"system": "New Zealand White rabbits", "test": "Slit-lamp ophthalmic observations (McDonald Shadduck scoring) in the rabbit topical IOP study", "assay_type": "in vivo", "parameters": "key to Conjunctival Congestion Score, treated right eye: 1 = A flushed, reddish color predominantly confined to the palpebral conjunctiva with some perilimbal injection but primarily confined to the lower and upper parts of the eye from the 4:00 to 7:00 and 11:00 to 1:00 positions; key to Cornea Score, treated right eye: 1 = Some loss of transparency. Only the epithelium and/or the anterior half of the stoma are involved. The underlying structures are clearly visible although some cloudiness may be readily apparent; key to Ophthalmic Observation (Slit-Lamp), treated right eye, individual animals: AN = Appeared normal", "details": "for Ophthalmic Observation (Slit-Lamp), treated right eye, individual animals: examination Days 5, 12, 22, 26, 33 as listed per animal (days without scored finding, until death)", "protocol": "Prior to placement on study, each animal underwent a pre-treatment ophthalmic examination (slit lamp and indirect ophthalmoscopy). Observations were scored according to the McDonald Shadduck system and recorded using a standardized data collection sheet.\nOphthalmic examinations (slit lamp) were performed prior to the first dosing on Days 5, 12, 22, 26, and 33. Ocular findings were scored according to the McDonald Shadduck system and recorded using a standardized data collection sheet."}, "[3]": {"system": "Human Tenon's fibroblasts", "test": "TGF-β stimulated cellular levels of collagen type I, α-smooth muscle actin and tissue transglutaminase (Western blot)", "assay_type": "cell-based", "details": "TGF-β 5 ng/ml, 0.1, 1, 3, 5 or 10 μM, day 5, ratio to GAPDH", "protocol": "Methods: Human Tenon's fibroblasts were seeded in 60 mm plates in 10% FBS MEM (fetal bovine serum/Eagle's minimum essential medium) and grown until approximately 90% confluency. After the cells were starved in 0.5% FBS MEM for approximately 72 hours, the media was changed to fresh 0.5% FBS MEM. […] Cells were harvested 1, 3 or 5 days later. They were washed twice with cold 1× PBS and scraped into 1×SDS sample buffer. Lysates were assayed for protein content using the DC protein assay kit from Bio-Rad. Equal amounts of protein from each sample were electrophoresed on a 7.5% Tris-glycine SDS gel. Proteins were transferred to a PVDF membrane, blocked and probed with one or more of the following antibodies: mouse monoclonal anti-α-smooth muscle actin Clone 1A4: (Sigma Aldrich, #A2547), mouse monoclonal anti-human GAPDH (6C5) (Santa Cruz Biotechnology, Inc., #sc-32233), goat anti-human collagen α1Type I (L-19) (Santa Cruz Biotechnology, Inc., #sc-8783), or mouse monoclonal anti-transglutaminase II Ab-3 (ClonesCUB7402+TG100) (NeoMarkers, # MS-300-P). Density of each band was measured densitometrically and the ratio to GADPH calculated."}, "[4]": {"system": "IL-1β-induced cytokine production in human corneal epithelial cells (HCECs)", "test": "IL-1β-stimulated cytokine production in primary human corneal epithelial cells (30-cytokine Luminex kit)", "quoted_text": "Primary HCECs were seeded in 24-well plates. […] Each treatment was performed in triplicate. Media were collected and used for determination of cytokine content using a 30-cytokine Luminex kit. Cell viability was determined by alamarBlue assay (LP06013).\nMedian fluorescence intensity (MFI) was used to obtain the concentration of each cytokines in pg/ml based on the standard curve of each cytokine assayed by Luminex. The linear range of the standard curve for each cytokine was used for determination of cytokine concentration. Duplicate values for each sample were averaged. Data were expressed as mean±SD. Statistical analysis was performed using one-way ANOVA-Dunnett's test, and P<0.05 was considered statistically significant."}, "[5]": {"system": "neovascularization and angiogenesis in the rat cornea", "details": "X. Xin et al., J. Biol. Chem. 274:9116-9121 (1999); cited from earlier work"}, "fibroblasts": {"system": "fibroblasts", "details": "cited from earlier work"}, "[6]": {"details": "0.1% dexamethasone, 0.05 mg/dose 4 × daily (Group A)"}},
  "note": "Where “and” joins values, the source holds several entries; their conditions need not be identical. Equal entries are not always repeated. Entries after “also recorded” stand apart in the source; their conditions may differ. Where two headings read alike, the source gives them in different places.",
  "data": [
    {"molecule": "Cc1ccc2c(NCC(O)(CC(C)(C)c3cc(F)cc4c3OCC4)C(F)(F)F)cccc2n1", "note": "(stereo not shown)", "values": [
      {"measurement": "Day of Death (day euthanized or found dead), individual rabbits", "setting": "[1]", "result": 29},
      {"measurement": "Recorded Notes on mortality/morbidity, individual rabbits", "setting": "[1]; 1 mg/g suspension, 0.05 mg/dose 4 × daily (Group D)", "result": "Found dead."},
      {"measurement": "Mortality (number of animals found dead or euthanized prior to study completion/number of animals in group)", "setting": "[1]; 1 mg/g suspension, 0.05 mg/dose", "result": "one of ten and 1/10^(6)"},
      {"measurement": "Day of Death (day euthanized or found dead), individual rabbits", "setting": "[1]; 10 mg/g suspension, 0.5 mg/dose 4 × daily (Group B)", "result": 11},
      {"measurement": "Mortality (number of animals found dead or euthanized prior to study completion/number of animals in group)", "setting": "[1]; 10 mg/g suspension, 0.5 mg/dose", "result": "one of ten and 1/10^(4)"},
      {"measurement": "Conjunctival Congestion Score, treated right eye", "setting": "[2]; 1 mg/g suspension 4 × daily, animal No. 3040, Day 22", "result": 1},
      {"measurement": "Ophthalmic Observation (Slit-Lamp), treated right eye, individual animals", "setting": "[2]; 1 mg/g suspension 4 × daily", "result": "AN"},
      {"measurement": "Other slit-lamp finding in dosed right eye", "setting": "[2]; 1 mg/g suspension, Group D, No. 3043", "result": "subconjunctival hemorrhage"},
      {"measurement": "Conjunctival Congestion Score, treated right eye", "setting": "[2]; 5 mg/g suspension 4 × daily, animal No. 3031, Day 22", "result": 1},
      {"measurement": "Conjunctival Congestion Score, treated right eye", "setting": "[2]; 5 mg/g suspension 4 × daily, animal No. 3035, Days 22, 26", "result": 1},
      {"measurement": "Conjunctival Congestion Score, treated right eye", "setting": "[2]; 5 mg/g suspension 4 × daily, animal No. 3064, Day 5", "result": 1},
      {"measurement": "Conjunctival Congestion Score, treated right eye", "setting": "[2]; 5 mg/g suspension 4 × daily, animal No. 3074, Day 26", "result": 1},
      {"measurement": "Ophthalmic Observation (Slit-Lamp), treated right eye, individual animals", "setting": "[2]; 5 mg/g suspension 4 × daily", "result": "AN"},
      {"measurement": "Conjunctival Congestion Score, treated right eye", "setting": "[2]; 10 mg/g suspension 4 × daily, animal No. 3003, Day 12", "result": 1},
      {"measurement": "Conjunctival Congestion Score, treated right eye", "setting": "[2]; 10 mg/g suspension 4 × daily, animal No. 3017, Days 5, 12", "result": 1},
      {"measurement": "Conjunctival Congestion Score, treated right eye", "setting": "[2]; 10 mg/g suspension 4 × daily, animal No. 3042, Day 26", "result": 1},
      {"measurement": "Surface area of cornea involvement Score, treated right eye", "setting": "[2]; 10 mg/g suspension 4 × daily, animal No. 3083, Day 5", "result": "1 (1 = 1-25% area of stromal cloudiness.)"},
      {"measurement": "Cornea Score, treated right eye", "setting": "[2]; 10 mg/g suspension 4 × daily, animal No. 3083, Day 5, pinpoint corneal scar", "result": "1^(2)"},
      {"measurement": "Ophthalmic Observation (Slit-Lamp), treated right eye, individual animals", "setting": "[2]; 10 mg/g suspension 4 × daily", "result": "AN"},
      {"measurement": "Other slit-lamp finding in dosed right eye", "setting": "[2]; 10 mg/g suspension, Group B, No. 3083", "result": "pinpoint corneal scar"},
      {"measurement": "Effect on TGF-β-induced cellular level of collagen type I", "setting": "[3]", "result": "inhibitory effect that appeared dose-related; also recorded: inhibit"},
      {"measurement": "Effect on TGF-β-induced cellular level of tissue transglutaminase", "setting": "[3]", "result": "inhibitory effect that appeared dose-related; also recorded: inhibit"},
      {"measurement": "Effect on TGF-β-induced cellular level of α-smooth muscle actin", "setting": "[3]", "result": "inhibitory effect that appeared dose-related; also recorded: inhibit"},
      {"measurement": "Potency relative to dexamethasone for inhibition of IL-1β-stimulated production of IL-6, IL-7, TGF-α, TNF-α, VGEF, and MCP-1", "setting": "[4]", "result": "comparable potency"},
      {"measurement": "Potency relative to dexamethasone in inhibiting IL-1β-stimulated production of G-CSF", "setting": "[4]", "result": "more potent than dexamethasone"},
      {"measurement": "Potency relative to dexamethasone in inhibiting IL-1β-stimulated production of GM-CSF, IL-8, and RANTES", "setting": "[4]", "result": "somewhat less potent than dexamethasone"},
      {"measurement": "Effect on IL-1β-stimulated RANTES production", "setting": "[4]; 1 nM-10 μM, IL-1β 10 ng/ml, 18 h", "result": "no significant effect"}
    ]},
    {"molecule": "CCCCCC=CC=C1C(=O)C=C[C@@H]1CC=CCCCC(=O)O", "note": "[15-deoxy-Δ-12,14-prostaglandin J2]", "values": [
      {"measurement": "Effect on neovascularization and angiogenesis in the rat cornea", "setting": "[5]", "result": "inhibit"}
    ]},
    {"molecule": "C[C@@H]1C[C@H]2[C@@H]3CCC4=CC(=O)C=C[C@]4(C)[C@@]3(F)[C@@H](O)C[C@]2(C)[C@@]1(O)C(=O)CO", "note": "[dexamethasone, reference compound]", "values": [
      {"measurement": "Mortality (number of animals found dead or euthanized prior to study completion/number of animals in group)", "setting": "[1]; 0.1% dexamethasone (Maxidex), 0.05 mg/dose", "result": "Six of ten"},
      {"measurement": "Mortality (number of animals found dead or euthanized prior to study completion/number of animals in group)", "setting": "[1]; 0.1% dexamethasone (Maxidex), 0.05 mg/dose, listed as Dexamethasone", "result": "6/10^(3)"},
      {"measurement": "Day of Death (day euthanized or found dead), individual rabbits", "setting": "[1]; [6]", "result": "25 (2×) and 27 (2×) and 23 and 13"},
      {"measurement": "Recorded Notes on mortality/morbidity, individual rabbits", "setting": "[1]; [6]", "result": "Euthanized due to severe profuse hemorrhagic diarrhea; also recorded: Found dead. No rigor mortis present"},
      {"measurement": "Mortality rate", "setting": "[1]; dexamethasone 0.05 mg/dose 4 × daily up to 31 days", "result": 6, "unit": "deaths per 10 rabbits"},
      {"measurement": "Conjunctival Congestion Score, treated right eye", "setting": "[2]; 0.1% dexamethasone 4 × daily, animal No. 3016, Day 5", "result": 1},
      {"measurement": "Conjunctival Congestion Score, treated right eye", "setting": "[2]; 0.1% dexamethasone 4 × daily, animal No. 3081, Day 22", "result": 1},
      {"measurement": "Ophthalmic Observation (Slit-Lamp), treated right eye, individual animals", "setting": "[2]; 0.1% dexamethasone 4 × daily", "result": "AN"}
    ]},
    {"molecule": "Prolactin: antagonist to at least one TGF-β isoform (protein, UniProt P01236 29-227, looked up) Prolactin: LPICPGGAARCQVTLRDLFDRAVVLSHYIHNLSSEMFSEFDKRYTHGRGFITKAINSCHTSSLATPEDKEQAQQMNQKDFLSLIVSILRSWNEPLYHLVTEVRGMQEAPEAILSKAVEIEEQTKRLLEGMELIVSQVHPETKENEIYPVWSGLPSLQMADEESRLSAYYNLLHCLRRDSHKIDNYLKLLKCRIIHNNNC", "values": [
      {"measurement": "Effect on the chemotaxis of fibroblasts", "setting": "fibroblasts", "result": "inhibit"}
    ]}
  ]
}
